Experimental findings from ChEMBL document CHEMBL1201862, “PubChem BioAssay data set” (2004) are described below.

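Where inhibition never reached the appropriate level, the endpoint shown equals the highest concentration tested. Otherwise, values were interpolated linearly from a five-concentration, 48-hour dose response in 96-well plates. GI50: concentration for 50% inhibition of growth.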 Active and inactive are the calls of the source. Rule as the data show it: active = GI50 up to about 1.1 µM and inactive = higher.

Some test systems named below: RXF 393; MDA-MB-231; SR; M14; CAKI-1; MCF7; UO-31; 786-0; SK-MEL-2; SK-MEL-5; OVCAR-3; NCI-H226; SN12C; UACC-62; MDA-N; A498; HCT-15; A549; U-251; NCI-H23.
Assay in all cases: NCI anticancer screen, dose series, 48 h

For the compound `C#CCSc1nc(-c2ccco2)n[nH]1`, the GI50 in the test with RXF 393, in the test with MDA-MB-231, in the test on SR, in the test with M14, in the test on CAKI-1 and in the test on MCF7 was > 100 µM (inactive) in each case. For the same compound, the GI50 with UO-31 was 17.2 µM (inactive); with 786-0, > 100 µM (inactive); in the test on SK-MEL-2 it was > 100 µM (inactive); with SK-MEL-5, > 100 µM (inactive); in the test on OVCAR-3, > 100 µM (inactive); in the test on NCI-H226 it was > 100 µM (inactive). For the same compound, the GI50 in the test on SN12C is > 100 µM (inactive); with UACC-62 it was > 100 µM (inactive); in the test on MDA-N, > 100 µM (inactive); with A498 it was > 100 µM (inactive); with HCT-15, over 100 µM; in the test with A549 it was > 100 µM (inactive). For the same compound, the GI50 in the test on U-251 and in the test on NCI-H23 was > 100 µM (inactive) in each case.

With `c1ccc(/N=C2\SC(c3ccccc3)CN2C23CC4CC(CC(C4)C2)C3)cc1` (stereo unspecified), the GI50 in the test with RXF 393, in the test with MDA-MB-231, in the test with SR, in the test with M14, with CAKI-1 and with MCF7 was > 100 µM (inactive) in each case. The GI50 in the test with UO-31, in the test with 786-0, in the test with SK-MEL-2, in the test with SK-MEL-5, in the test on OVCAR-3 and with NCI-H226 was > 100 µM (inactive) in each case. The GI50 in the test with SN12C is > 100 µM (inactive); in the test with MDA-N, > 100 µM (inactive); in the test on A498, > 100 µM (inactive); in the test with HCT-15, over 100 µM; in the test with A549, > 100 µM (inactive); in the test with U-251, > 100 µM (inactive). Besides, the GI50 with NCI-H23 was > 100 µM (inactive).

For the compound `CCOC(=O)N/N=C(/OCC)c1ccccc1`, the GI50 with RXF 393, in the test with MDA-MB-231, in the test on SR, with CAKI-1, with MCF7 and in the test with UO-31 was > 100 µM (inactive) in each case. The GI50 with 786-0, in the test with SK-MEL-2, with SK-MEL-5, in the test on OVCAR-3, in the test on NCI-H226 and with SN12C was > 100 µM (inactive) throughout. For the same compound, the GI50 in the test with UACC-62 is > 100 µM (inactive); in the test on MDA-N, > 100 µM (inactive); in the test with A498, > 100 µM (inactive); in the test on HCT-15, over 100 µM; in the test on A549 it was > 100 µM (inactive); with U-251 it was > 100 µM (inactive). In addition, in the test with NCI-H23, the GI50 was > 100 µM (inactive).

As for `COc1cc2c(cc1OC)CN1CCc3ccccc3CC1C2` (stereo unspecified), the GI50 was > 100 µM (inactive) in the test on MDA-MB-231; 0.208 µM (active) in the test on SR; 30.1 µM (inactive) in the test on M14; 42.4 µM (inactive) in the test on CAKI-1; 25.6 µM (inactive) in the test on MCF7; 22.9 µM (inactive) in the test with UO-31. For the same compound, the GI50 with 786-0 was 36.3 µM (inactive); in the test with SK-MEL-2, 34.3 µM (inactive); in the test on SK-MEL-5 it was 27.1 µM (inactive); with OVCAR-3 it was 97.5 µM (inactive); with NCI-H226, 42.1 µM (inactive); in the test with SN12C, 40.7 µM (inactive). For the same compound, the GI50 in the test with UACC-62 was 23.6 µM (inactive); in the test with MDA-N it was 44.1 µM (inactive); with A498, 43.3 µM (inactive); with HCT-15, 39.4 µM; with A549 it was 49.7 µM (inactive); with U-251 it was 93.1 µM (inactive). Moreover, the GI50 in the test with NCI-H23 is 31.9 µM (inactive).

Regarding `O=C1O[C@H](COC(=O)c2ccccc2)[C@@H](OC(=O)c2ccccc2)C=C1OC(=O)c1ccccc1`, the GI50 is 17 µM (inactive) in the test on RXF 393; 17.5 µM (inactive) in the test on MDA-MB-231; 18.5 µM (inactive) with SR; 17.5 µM (inactive) with M14; 23.8 µM (inactive) in the test with CAKI-1; 28.8 µM (inactive) with MCF7. Besides, the GI50 was 30.9 µM (inactive) with UO-31; 18.2 µM (inactive) in the test on 786-0; 23.5 µM (inactive) in the test with SK-MEL-2; 19 µM (inactive) with SK-MEL-5; 18.3 µM (inactive) in the test with OVCAR-3; 21.5 µM (inactive) in the test with NCI-H226. The GI50 with SN12C was 18.8 µM (inactive); in the test with UACC-62, 20.7 µM (inactive); in the test on MDA-N, 31.7 µM (inactive); in the test with A498, 55.7 µM (inactive); with HCT-15 it was 17.7 µM; in the test with U-251, 18.2 µM (inactive). In the test on NCI-H23, the GI50 was 18.1 µM (inactive).

With `C#CCOCC12C=CC(O1)C1C(=O)OCC12` (stereo unspecified), the GI50 in the test with RXF 393, with MDA-MB-231, in the test on SR, in the test with M14, with CAKI-1 and in the test with MCF7 was > 100 µM (inactive) in each case. Besides, the GI50 in the test with UO-31, in the test with 786-0, in the test with SK-MEL-5, in the test on OVCAR-3, in the test on NCI-H226 and with SN12C was > 100 µM (inactive) throughout. Besides, the GI50 in the test with UACC-62 was > 100 µM (inactive); with MDA-N it was > 100 µM (inactive); in the test on A498, > 100 µM (inactive); in the test on HCT-15, over 100 µM; with A549 it was > 100 µM (inactive); with U-251 it was > 100 µM (inactive). Also, the GI50 with NCI-H23 was > 100 µM (inactive).

With `O=C(Nc1cccc2ccccc12)c1cc2ccccc2oc1=O`, the GI50 with RXF 393 is 22.6 µM (inactive); in the test on MDA-MB-231, 23.6 µM (inactive); in the test with SR it was > 100 µM (inactive); with M14, > 100 µM (inactive); in the test on CAKI-1 it was 48 µM (inactive); in the test on MCF7 it was > 100 µM (inactive). Moreover, the GI50 in the test with 786-0 is 13.7 µM (inactive); with SK-MEL-2, 40.6 µM (inactive); in the test with SK-MEL-5, > 100 µM (inactive); with OVCAR-3, 70.5 µM (inactive); in the test with NCI-H226, 21.8 µM (inactive); in the test with SN12C it was > 100 µM (inactive). Also, the GI50 is > 100 µM (inactive) in the test with UACC-62; > 100 µM (inactive) in the test on MDA-N; 47.9 µM (inactive) in the test on A498; over 100 µM with HCT-15; > 100 µM (inactive) with A549; 34 µM (inactive) in the test on U-251. For the same compound, the GI50 in the test on NCI-H23 is 36.7 µM (inactive).

On to `COC1C(=O)CCC2(CO2)C1(O)C1(C)OC1CCC(C)C` (stereo unspecified), for which the GI50 was > 100 µM (inactive) with RXF 393; 15.6 µM (inactive) with MDA-MB-231; > 100 µM (inactive) in the test on SR; 20.1 µM (inactive) in the test with M14; > 100 µM (inactive) in the test on CAKI-1; 54.8 µM (inactive) in the test with MCF7. The GI50 with UO-31 was > 100 µM (inactive); in the test with 786-0, 47.2 µM (inactive); in the test with SK-MEL-5 it was 21.5 µM (inactive); in the test with OVCAR-3 it was > 100 µM (inactive); in the test with NCI-H226 it was > 100 µM (inactive); with SN12C, 23.3 µM (inactive). Moreover, the GI50 in the test on UACC-62 was 36.2 µM (inactive); with MDA-N, 29.4 µM (inactive); with A498, > 100 µM (inactive); with HCT-15, 29.4 µM; with U-251, 13.5 µM (inactive); with NCI-H23, 22.6 µM (inactive).

As to `S=C1N=C(Cl)/C(=C\c2ccccc2)N1`, the GI50 in the test with RXF 393, with MDA-MB-231, with SR, with M14, in the test on CAKI-1 and in the test with MCF7 was > 100 µM (inactive) in each case. For the same compound, the GI50 in the test with UO-31, with 786-0, in the test on SK-MEL-2, in the test with SK-MEL-5, with OVCAR-3 and in the test on NCI-H226 was > 100 µM (inactive) throughout. For the same compound, the GI50 was > 100 µM (inactive) with SN12C; > 100 µM (inactive) with UACC-62; > 100 µM (inactive) with MDA-N; > 100 µM (inactive) in the test with A498; over 100 µM in the test with HCT-15; > 83.6 µM (inactive) with A549. For the same compound, the GI50 in the test with U-251 and in the test with NCI-H23 was > 100 µM (inactive) in each case.

Take `C=CCOC(=O)N1c2ccc(O)cc2[C@@]23O[C@@]24[C@@H]1C#C/C=C\C#C[C@]3(O)C(OC)(OC)C[C@@H]4C`: the GI50 with RXF 393 was 41.7 µM (inactive); in the test with MDA-MB-231, 23.6 µM (inactive); with SR, 24.2 µM (inactive); with M14, 23.8 µM (inactive); with CAKI-1 it was 53.6 µM (inactive); with MCF7 it was 35 µM (inactive). In addition, the GI50 with UO-31 is 37.2 µM (inactive); in the test on 786-0 it was 22.2 µM (inactive); with SK-MEL-2, 24.2 µM (inactive); in the test with SK-MEL-5 it was 13.8 µM (inactive); with NCI-H226, 24.9 µM (inactive); with SN12C it was 23.8 µM (inactive). For the same compound, the GI50 in the test with UACC-62 is 33.7 µM (inactive); with MDA-N, 28.8 µM (inactive); with A498, 25.5 µM (inactive); in the test on HCT-15 it was 44.2 µM; in the test with A549 it was 50.5 µM (inactive); in the test with U-251 it was 33.5 µM (inactive). In the test with NCI-H23, the GI50 was 24.4 µM (inactive).

For the compound `CC1C(C#N)(C#N)C(C#N)=C(N)C1(C)[N+](=O)[O-]` (stereo unspecified), the GI50 in the test with RXF 393 was 43.1 µM (inactive); in the test with MDA-MB-231, > 100 µM (inactive); in the test with SR, 31.2 µM (inactive); in the test with M14, > 100 µM (inactive); with CAKI-1 it was 5.27 µM (inactive); in the test on MCF7, 24.8 µM (inactive). Also, the GI50 was > 100 µM (inactive) with UO-31; 56 µM (inactive) in the test with 786-0; > 100 µM (inactive) with SK-MEL-2; > 100 µM (inactive) with SK-MEL-5; 67.9 µM (inactive) in the test with OVCAR-3; > 100 µM (inactive) in the test with NCI-H226. Moreover, the GI50 in the test with SN12C is 58.2 µM (inactive); in the test with UACC-62, 50.4 µM (inactive); in the test on MDA-N, 64.6 µM (inactive); in the test on A498, 68.2 µM (inactive); with HCT-15, 33.7 µM; in the test with A549 it was 23.5 µM (inactive). Moreover, the results for the GI50 with U-251 and with NCI-H23 were 48 µM (inactive) and > 100 µM (inactive), respectively.
